Laboratory results taken from the NIST ThermoML archive (doi:10.1016/j.jct.2015.11.021).
Numbers after ± are expanded uncertainties.

Conditions: Liquid, Closed cell (Static) method

FC(F)CC(F)(F)F [1,1,1,3,3-pentafluoropropane]
vapor or sublimation pressure (303.15 K): 177.8 ± 1.1 kPa | vapor or sublimation pressure (323.15 K): 344.7 ± 1.2 kPa | vapor or sublimation pressure (343.15 K): 610.2 ± 1.5 kPa | vapor or sublimation pressure (363.15 K): 1006.7 ± 2 kPa | vapor or sublimation pressure (373.15 K): 1266.2 ± 2.4 kPa

CCCC [butane]
vapor or sublimation pressure (303.15 K): 283.7 ± 1.1 kPa | vapor or sublimation pressure (323.15 K): 496.2 ± 1.2 kPa | vapor or sublimation pressure (343.15 K): 809.8 ± 1.5 kPa | vapor or sublimation pressure (363.15 K): 1249.8 ± 2.1 kPa | vapor or sublimation pressure (373.15 K): 1526.8 ± 2.4 kPa
